From patent publication US20250092022A1, “MUSCARINIC RECEPTOR 4 ANTAGONISTS AND METHODS OF USE” (Neurocrine Biosciences, Inc., priority 2021, published 2025)
pKi: −log10 of the molar value.

Target: human M4 receptor (Homo sapiens (Human), UniProt P08173)
Test: Binding assay: inhibition of radioligand (tritiated N-methylscopolamine) binding to membranes from CHO cells expressing human M4 receptor
Settings: CHO cell membranes, 1.5 nM tritiated N-methylscopolamine
Experimental: Binding affinity (Ki) for the compounds was measured by inhibition of radioligand binding to membranes from CHO cells expressing human M4 receptor. Membranes were prepared by nitrogen cavitation and differential centrifugation as previously described (Hoare et al., Mol. Pharmacol. 2003 March; 63(3): 751-65). The radioligand employed was tritiated N-methylscopolamine, used at a concentration of 1.5 nM. A dose-response of twelve concentrations of compound was used, ranging from […]. The assay buffer was 50 mM HEPES, 100 mM NaCl, 5 mM MgCl2, 1 mM ethylenediaminetetraacetic acid, pH-adjusted to pH 7.4. Membranes, radioligand and compound were incubated together for 90 minutes at 37° C., in a total volume of 150 μL in a 96-well plate. Receptor-bound radioligand was then collected by harvesting the assay over glass fiber filters pretreated with polyethylenimine to trap the cell membranes, using rapid vacuum filtration. Harvesting and radioactivity counting was conducted as previously described (see, e.g., Hoare et al., Mol. Pharmacol. 2003 63(3):751-65); Erratum at Mol. Pharmacol. 2005 July; 68(1): 260).

human M4 receptor, sequence (P08173 whole entry): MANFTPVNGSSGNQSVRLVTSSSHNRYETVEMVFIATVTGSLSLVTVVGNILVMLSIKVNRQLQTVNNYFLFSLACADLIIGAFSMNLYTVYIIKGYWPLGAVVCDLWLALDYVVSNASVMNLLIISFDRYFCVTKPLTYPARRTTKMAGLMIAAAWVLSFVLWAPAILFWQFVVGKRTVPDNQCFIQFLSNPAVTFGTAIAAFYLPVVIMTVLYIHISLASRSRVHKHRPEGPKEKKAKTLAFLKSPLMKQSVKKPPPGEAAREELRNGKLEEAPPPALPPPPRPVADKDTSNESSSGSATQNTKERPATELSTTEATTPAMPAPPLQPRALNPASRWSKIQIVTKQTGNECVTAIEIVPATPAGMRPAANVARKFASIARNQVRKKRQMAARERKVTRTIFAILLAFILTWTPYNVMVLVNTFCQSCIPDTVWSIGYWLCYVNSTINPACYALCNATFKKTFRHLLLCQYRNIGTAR

pKi	Structure (SMILES)
> 7.00	CCS(=O)(=O)c1cnc(N2C[C@@H](C)N(C(=O)NC3CC4(C3)CN(Cc3ccccc3)C4)[C@@H](C)C2)nc1 [Compound 2, (2R,6S)-N-{2-benzyl-2-azaspiro[3.3]heptan-6-yl}-4-[5-(ethanesulfonyl)pyrimidin-2-yl]-2,6-dimethylpiperazine-1-carboxamide]
> 7.00	C[C@@H]1CN(c2ncc(S(=O)(=O)C3CC3)cn2)C[C@H](C)N1C(=O)NC1CC2(C1)CN(Cc1ccccc1)C2 [Compound 3, (2R,6S)-N-{2-benzyl-2-azaspiro[3.3]heptan-6-yl}-4-[5-(cyclopropanesulfonyl)pyrimidin-2-yl]-2,6-dimethylpiperazine-1-carboxamide]
6.30 to 7.00	C[C@@H]1CN(c2ncc(S(C)(=O)=O)cn2)[C@@H](C)CN1C(=O)NC1CC2(C1)CN(Cc1ccccc1)C2 [Compound 4, (2R,5S)-N-{2-benzyl-2-azaspiro[3.3]heptan-6-yl}-4-(5-methanesulfonyl-pyrimidin-2-yl)-2,5-dimethylpiperazine-1-carboxamide]
> 7.00	CCS(=O)(=O)c1cnc(N2C[C@@H](C)N(C(=O)NC3CC4(C3)CN(Cc3ccccc3)C4)C[C@@H]2C)nc1 [Compound 5, (2R,5S)-N-{2-benzyl-2-azaspiro[3.3]heptan-6-yl}-4-[5-(ethanesulfonyl)pyrimidin-2-yl]-2,5-dimethylpiperazine-1-carboxamide]
> 7.00	C[C@@H]1CN(c2ncc(S(=O)(=O)C3CC3)cn2)[C@@H](C)CN1C(=O)NC1CC2(C1)CN(Cc1ccccc1)C2 [Compound 6, (2R,5S)-N-{2-benzyl-2-azaspiro[3.3]heptan-6-yl}-4-[5-(cyclopropane-sulfonyl)pyrimidin-2-yl]-2,5-dimethylpiperazine-1-carboxamide]
6.30 to 7.00	CCS(=O)(=O)c1cnc(N2CCN(C(=O)NC3CC4(C3)CN(Cc3ccccc3)C4)[C@H](C)C2)nc1 [Compound 7, (2R)-N-{2-benzyl-2-azaspiro[3.3]heptan-6-yl}-4-[5-(ethanesulfonyl)pyrimidin-2-yl]-2-methylpiperazine-1-carboxamide]
6.30 to 7.00	C[C@@H]1CN(c2ncc(S(=O)(=O)C3CC3)cn2)CCN1C(=O)NC1CC2(C1)CN(Cc1ccccc1)C2 [Compound 8, (2R)-N-{2-benzyl-2-azaspiro[3.3]heptan-6-yl}-4-[5-(cyclopropanesulfonyl)pyrimidin-2-yl]-2-methylpiperazine-1-carboxamide]
≤ 6.30	C[C@@H]1CN(c2ccc(S(C)(=O)=O)cc2)C[C@H](C)N1C(=O)NC1CC2(C1)CN(Cc1ccccc1)C2 [Compound 9, (2R,6S)-N-{2-benzyl-2-azaspiro[3.3]heptan-6-yl}-4-(4-methanesulfonyl-phenyl)-2,6-dimethyl-piperazine-1-carboxamide]
> 7.00	CCS(=O)(=O)c1cnc(N2C[C@@H](C)N(C(=O)OC3CC4(C3)CN(Cc3ccccc3)C4)C[C@@H]2C)nc1 [Compound 11, 2-benzyl-2-azaspiro [3.3]heptan-6-yl (2R,5S)-4-[5-(ethane-sulfonyl)pyrimidin-2-yl]-2,5-dimethylpiperazine-1-carboxylate]
> 7.00	C[C@@H]1CN(c2ncc(S(C)(=O)=O)cn2)[C@@H](C)CN1C(=O)OC1CC2(C1)CN(Cc1ccccc1)C2 [Compound 12, 2-benzyl-2-azaspiro [3.3]heptan-6-yl (2R,5S)-4-(5-methane-sulfonylpyrimidin-2-yl)-2,5-dimethylpiperazine-1-carboxylate]
6.30 to 7.00	C[C@@H]1CN(c2ncc(S(C)(=O)=O)cn2)CCN1C(=O)OC1CC2(C1)CN(Cc1ccccc1)C2 [Compound 13, 2-benzyl-2-azaspiro [3.3]heptan-6-yl (2R)-4-(5-methanesulfonyl-pyrimidin-2-yl)-2-methylpiperazine-1-carboxylate]
6.30 to 7.00	CCS(=O)(=O)c1cnc(N2C[C@@H](C)N(C(=O)OC3CC4(C3)CN(Cc3ccccc3)C4)[C@H](C)C2)nc1 [Compound 18, 2-benzyl-2-azaspiro [3.3]heptan-6-yl (2R,6R)-4-[5-(ethane-sulfonyl)pyrimidin-2-yl]-2,6-dimethylpiperazine-1-carboxylate]
> 7.00	C[C@@H]1CN(c2ncc(S(=O)(=O)C3CC3)cn2)[C@@H](C)CN1C(=O)OC1CC2(C1)CN(Cc1ccccc1)C2 [Compound 20, 2-benzyl-2-azaspiro [3.3]heptan-6-yl (2R,5S)-4-[5-(cyclo-propanesulfonyl)pyrimidin-2-yl]-2,5-dimethyl-piperazine-1-carboxylate]
> 7.00	CCS(=O)(=O)c1cnc(N2CCN(C(=O)OC3CC4(C3)CN(Cc3ccccc3)C4)[C@H](C)C2)nc1 [Compound 21, 2-benzyl-2-azaspiro [3.3]heptan-6-yl (2R)-4-[5-(ethanesulfonyl)-pyrimidin-2-yl]-2-methylpiperazine-1-carboxylate]
> 7.00	C[C@@H]1CN(c2ncc(S(=O)(=O)C3CC3)cn2)CCN1C(=O)OC1CC2(C1)CN(Cc1ccccc1)C2 [Compound 22, 2-benzyl-2-azaspiro [3.3]heptan-6-yl (2R)-4-[5-(cyclopropanesulfonyl)pyrimidin-2-yl]-2-methylpiperazine-1-carboxylate]
6.30 to 7.00	C[C@@H]1CN(c2ncc([S+](C)[O-])cn2)C[C@H](C)N1C(=O)OC1CC2(C1)CN(Cc1ccccc1)C2 (stereo partly drawn) [Compound 23, 2-benzyl-2-azaspiro [3.3]heptan-6-yl (2R,6S)-4-(5-methane-sulfinylpyrimidin-2-yl)-2,6-dimethylpiperazine-1-carboxylate]
> 7.00	C[C@@H]1CN(c2ncc(S(=O)(=O)C(F)F)cn2)[C@@H](C)CN1C(=O)OC1CC2(C1)CN(Cc1ccccc1)C2 [Compound 24, 2-benzyl-2-azaspiro [3.3]heptan-6-yl (2R,5S)-4-(5-difluoromethanesulfonyl-pyrimidin-2-yl)-2,5-dimethylpiperazine-1-carboxylate]
> 7.00	Cc1nc(N2C[C@@H](C)N(C(=O)OC3CC4(C3)CN(Cc3ccccc3)C4)C[C@@H]2C)ncc1S(C)(=O)=O [Compound 25, 2-benzyl-2-azaspiro [3.3]heptan-6-yl (2R,5S)-4-(5-methane-sulfonyl-4-methyl-pyrimidin-2-yl)-2,5-dimethylpiperazine-1-carboxylate]
> 7.00	CC(C)S(=O)(=O)c1cnc(N2C[C@@H](C)N(C(=O)OC3CC4(C3)CN(Cc3ccccc3)C4)C[C@@H]2C)nc1 [Compound 26, 2-benzyl-2-azaspiro [3.3]heptan-6-yl (2R,5S)-2,5-dimethyl-4-[5-(propane-2-sulfonyl)pyrimidin-2-yl]piperazine-1-carboxylate]
≤ 6.30	C[C@@H]1CN(c2ncc(N3CCC3=O)cn2)C[C@H](C)N1C(=O)OC1CC2(C1)CN(Cc1ccccc1)C2 [Compound 29, 2-benzyl-2-azaspiro [3.3]heptan-6-yl (2R,6S)-2,6-dimethyl-4-[5-(2-oxoazetidin-1-yl)pyrimidin-2-yl] piperazine-1-carboxylate]
≤ 6.30	C[C@@H]1CN(c2ncc(N3CCCC3=O)cn2)C[C@H](C)N1C(=O)OC1CC2(C1)CN(Cc1ccccc1)C2 [Compound 30, 2-benzyl-2-azaspiro [3.3]heptan-6-yl (2R,6S)-2,6-dimethyl-4-[5-(2-oxopyrrolidin-1-yl)pyrimidin-2-yl]piperazine-1-carboxylate]
> 7.00	CCS(=O)(=O)c1cnc(N2C[C@@H](C)N(C(=O)OC3CC4(C3)CN(Cc3ccccc3)C4)[C@@H](C)C2)nc1 [Compound 32, 2-benzyl-2-azaspiro [3.3]heptan-6-yl (2R,6S)-4-[5-(ethane-sulfonyl)pyrimidin-2-yl]-2,6-dimethylpiperazine-1-carboxylate]
> 7.00	C[C@@H]1CN(c2ncc(S(C)(=O)=O)cn2)C[C@H](C)N1C(=O)OC1CC2(C1)CN(Cc1ccccc1)C2 [Compound 33, 2-benzyl-2-azaspiro [3.3]heptan-6-yl (2R,6S)-4-(5-methane-sulfonylpyrimidin-2-yl)-2,6-dimethylpiperazine-1-carboxylate]
> 7.00	C[C@@H]1CN(c2ncc(S(C)(=O)=O)cn2)C[C@H](C)N1C(=O)OC1CC2(C1)CN(Cc1ccc(Cl)cc1)C2 [Compound 36, 2-[(4-chlorophenyl)methyl]-2-azaspiro[3.3] heptan-6-yl (2R,6S)-4-(5-methanesulfonylpyrimidin-2-yl)-2,6-dimethyl-piperazine-1-carboxylate]
> 7.00	C[C@@H]1CN(c2ncc(S(C)(=O)=O)cn2)[C@@H](C)CN1C(=O)OC1CC2(C1)CN(Cc1ccc(Cl)cc1)C2 [Compound 37, 2-[(4-chlorophenyl)methyl]-2-azaspiro[3.3] heptan-6-yl (2R,5S)-4-(5-methanesulfonylpyrimidin-2-yl)-2,5-dimethyl-piperazine-1-carboxylate]
> 7.00	C[C@@H]1CN(c2ncc(S(C)(=O)=O)cn2)C[C@H](C)N1C(=O)OC1CC2(C1)CN(Cc1ccc(F)cc1)C2 [Compound 38, 2-[(4-fluorophenyl)methyl]-2-azaspiro[3.3] heptan-6-yl (2R,6S)-4-(5-methanesulfonylpyrimidin-2-yl)-2,6-dimethyl-piperazine-1-carboxylate]
6.30 to 7.00	C[C@@H]1CN(c2ncc3c(n2)CCS3(=O)=O)C[C@H](C)N1C(=O)OC1CC2(C1)CN(Cc1ccccc1)C2 [Compound 39, 2-benzyl-2-azaspiro [3.3]heptan-6-yl (2R,6S)-4-{5,5-dioxo-6H, 7H-5λ^6-thieno[3,2-d]pyrimidin-2-yl}-2,6-dimethylpiperazine-1-carboxylate]
